According to patent publication US8133898B2, “Renin inhibitors” (Takeda Pharmaceutical Company Limited, priority 2008, dated 2012):

What was measured:
[1] = target: T1, Recombinant human renin (Homo sapiens, UniProt P00797); assay: in vitro enzymatic activity of renin inhibitors (fluorescence); type: biochemical; conditions: fluorogenic peptide substrate
T1 construct: with trypsin, and isolate the active form (residues 67-406); made in house; host or cells: FreeStyle 293-F cells (transient expression of pcDNA3.1(+)/hREN)
T1 sequence (P00797 67-406): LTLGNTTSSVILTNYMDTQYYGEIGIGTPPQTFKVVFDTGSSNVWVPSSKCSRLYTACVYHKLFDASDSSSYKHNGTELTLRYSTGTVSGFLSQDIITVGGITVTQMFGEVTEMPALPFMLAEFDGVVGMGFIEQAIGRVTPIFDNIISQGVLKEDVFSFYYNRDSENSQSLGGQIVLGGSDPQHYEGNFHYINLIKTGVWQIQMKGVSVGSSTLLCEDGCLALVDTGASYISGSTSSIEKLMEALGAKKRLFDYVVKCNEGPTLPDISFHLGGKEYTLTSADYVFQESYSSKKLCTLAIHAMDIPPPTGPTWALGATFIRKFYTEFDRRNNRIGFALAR
Text: Test compounds in varying concentrations may be reacted with recombinant human renin in the presence of substrate, e.g., QXL520-γ-Abu-Ile-His-Pro-Phe-His-Leu-Val-Ile-His-Thr-Lys (HiLyteFluo488)-Arg-OH (Anaspec, San Jose, Calif.). The reaction can be followed kinetically using fluorescence (excitation λ=485 nm; emission λ=538 nm). Inhibition constants (IC50) may be calculated by non-linear curve fitting of the compound concentrations and fluorescence intensities to the standard IC50 equation.
Solutions of test compounds in varying concentrations (≦2 mM final concentration) are prepared in dimethyl sulfoxide (DMSO) and then diluted into assay buffer comprising 50 mM Hepes, 1 mM EDTA, 1 mM DTT, 0.1 mg/ml BSA, 0.01% Brij35, pH 7.4. Alternatively, the assay can be performed with a high BSA concentration, wherein the buffer contains an additional 2% BSA.
Recombinant human renin (3 nM final concentration) is added to the dilutions and pre-incubated with the compounds for 10 minutes at 37° C. As described in Examples A-C above, human renin can be obtained by expressing preprorenin (residue 1-406) in mammalian cells, treating the prorenin (residues 24-406) contained in the culture supernatant with trypsin, and isolate the active form (residues 67-406). After pre-incubation, the reaction is initiated with 1 μM of substrate QXL520-γ-Abu-Ile-His-Pro-Phe-His-Leu-Val-Ile-His-Thr-Lys (HiLyteFluo488)-Arg-OH (Anaspec, San Jose, Calif.). The final DMSO in the assay is 5%. The total volume of the reaction mixture is 20 μL, which can be placed on Greiner 384-well small volume plates.
Renin activity may be determined via fluorescence (excitation λ=485 nm; emission λ=538 nm), e.g., on a Molecular Devices SPECTROmax GEMINI XPS. The fluorescence intensity is determined upon the addition of substrate and determined again after incubation at 37° C. for one hour. The fluorescence intensity of a blank (no inhibition) using vehicle alone is also determined. Renin activity is linearly proportional to the change in fluorescence observed (final—initial).
The percent inhibition of renin at a given compound concentration is defined as: 100%×[1−(Fcompound/Fblank)] where Fcompound is the observed fluorescence at a given concentration of test compound and Fblank is the observed fluorescence in the presence of vehicle alone.
The pIC50 value (negative log of the molar concentration of the compound that produces 50% inhibition) of a test compound is calculated by non-linear least squares curve fitting of the equation: Percent Inhibition=100%/(1+(10−pIC50/10 log [I])) to percent inhibition versus compound concentration. The 50% inhibitory concentration (IC50) of a test compound is calculated by raising 10 to the negative pIC50 (10-pIC50).

[2] = target: Human DPP-IV (Homo sapiens, UniProt P27487); assay: in vitro enzymatic activity of inhibitors against DPP-IV; type: biochemical; conditions: AP-AFC substrate
Protocol: Solutions of test compounds in varying concentrations ([…]) were prepared in dimethyl sulfoxide (DMSO) and then diluted into assay buffer comprising: 20 mM Tris, pH 7.4; 20 mM KCl; and 0.1 mg/mL BSA. Human DPP-IV (0.1 nM final concentration) was added to the dilutions and pre-incubated for 10 minutes at ambient temperature before the reaction was initiated with A-P-7-amido-4-trifluoromethylcoumarin (AP-AFC; 10 μM final concentration). The total volume of the reaction mixture was 10-100 μL depending on assay formats used (384 or 96 well plates). The reaction was followed kinetically (excitation λ=400 nm; emission λ=505 nm) for 5-10 minutes or an end-point was measured after 10 minutes. Inhibition constants (IC50) were calculated from the enzyme progress curves using standard mathematical models.

Sequence of Human DPP-IV (P27487 whole entry): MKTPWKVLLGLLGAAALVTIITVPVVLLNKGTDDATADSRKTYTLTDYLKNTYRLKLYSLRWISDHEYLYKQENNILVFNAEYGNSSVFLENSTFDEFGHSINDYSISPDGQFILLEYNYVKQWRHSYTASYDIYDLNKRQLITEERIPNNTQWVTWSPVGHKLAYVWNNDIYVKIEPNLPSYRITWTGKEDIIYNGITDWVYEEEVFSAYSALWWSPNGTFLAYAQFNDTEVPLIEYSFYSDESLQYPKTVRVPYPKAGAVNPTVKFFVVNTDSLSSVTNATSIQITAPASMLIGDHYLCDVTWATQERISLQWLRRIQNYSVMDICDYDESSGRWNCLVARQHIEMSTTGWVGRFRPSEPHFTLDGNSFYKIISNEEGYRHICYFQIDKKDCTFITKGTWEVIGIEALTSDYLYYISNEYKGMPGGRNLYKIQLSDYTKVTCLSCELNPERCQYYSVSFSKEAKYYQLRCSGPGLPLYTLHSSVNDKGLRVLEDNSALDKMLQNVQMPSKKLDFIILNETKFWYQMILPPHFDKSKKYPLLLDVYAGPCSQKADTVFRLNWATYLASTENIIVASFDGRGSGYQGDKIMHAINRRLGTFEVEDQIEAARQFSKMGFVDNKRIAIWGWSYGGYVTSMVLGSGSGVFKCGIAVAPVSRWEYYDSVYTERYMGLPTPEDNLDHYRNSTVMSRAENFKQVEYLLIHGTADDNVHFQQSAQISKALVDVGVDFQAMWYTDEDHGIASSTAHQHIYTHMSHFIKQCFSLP

Question: How did the IC50 [1] turn out when `Cn1c(=O)c2c(-c3nc4ccccc4s3)c(CN)c(NCc3ccc4ccccc4c3)nc2n(C)c1=O` [Compound 62, 6-(Aminomethyl)-5-(benzo[d]thiazol-2-yl)-1,3-dimethyl-7-(naphthalen-2 ylmethylamino)pyrido[2,3-d]pyrimidine-2,4(1H,3H)-dione] was run?
Answer: > 100 µM

Question: And the IC50 [2]?
Answer: > 100 µM

Question: Which results are given for `CCOc1cc(OCC)cc(-c2c(CN)c(NCc3ccc4ccccc4c3)nc3c2c(=O)n(C)c(=O)n3C)c1` [Compound 56, 6-(Aminomethyl)-5-(3,5-diethoxyphenyl)-1,3-dimethyl-7-(naphthalen-2-ylmethylamino)pyrido[2,3-d]pyrimidine-2,4(1H,3H)-dione]?
Answer: IC50 [1]: > 100 µM; IC50 [2]: > 100 µM

Question: Which results are given for `COc1ccc(F)cc1-c1c(CN)c(NCCCc2ccccc2)nc2c1c(=O)n(C)c(=O)n2C` [Compound 75, 6-(aminomethyl)-5-(5-fluoro-2-methoxyphenyl)-1,3-dimethyl-7-(3-phenylpropylamino)pyrido[2,3-d]pyrimidine-2,4(1H,3H)-dione]?
Answer: IC50 [1]: 1 to 10 µM; IC50 [2]: < 1 µM

Question: What does the source list for `Cn1c(=O)c2c(-c3cccc(O)c3)c(CN)c(NCc3ccc4ccccc4c3)nc2n(C)c1=O` [Compound 80, 6-(aminomethyl)-5-(3-hydroxyphenyl)-1,3-dimethyl-7-(naphthalen-2-ylmethylamino)pyrido[2,3-d]pyrimidine-2,4(1H,3H)-dione]?
Answer: IC50 [1]: 1 to 10 µM; IC50 [2]: 10 to 100 µM

Question: Which results are given for `Cn1c(=O)c2c(-c3cccc(F)c3)c(CN)c(NCc3ccc4ccccc4c3)nc2n(C)c1=O` [Compound 90, 6-(Aminomethyl)-5-(3-fluorophenyl)-1,3-dimethyl-7-(naphthalen-2-ylmethylamino)pyrido[2,3-d]pyrimidine-2,4(1H,3H)-dione]?
Answer: IC50 [1]: 1 to 10 µM; IC50 [2]: 1 to 10 µM

Question: `CC(C)COc1ccccc1-c1c(CN)c(NCc2ccc3ccccc3c2)nc2c1c(=O)n(C)c(=O)n2C` [Compound 77, 6-(aminomethyl)-5-(2-isobutoxyphenyl)-1,3-dimethyl-7-(naphthalen-2-ylmethylamino)pyrido[2,3-d]pyrimidine-2,4(1H,3H)-dione] was tested. Which IC50 [1] did it give?
Answer: 1 to 10 µM

Question: And the IC50 [2]?
Answer: > 100 µM

Question: Which results are given for `COc1ccc(F)cc1-c1c(CN)c(NCc2ccc(-n3cccn3)cc2)nc2c1c(=O)n(C)c(=O)n2C` [Compound 72, 7-(4-(1H-pyrazol-1-yl)benzylamino)-6-(aminomethyl)-5-(5-fluoro-2-methoxyphenyl)-1,3-dimethylpyrido[2,3-d]pyrimidine-2,4(1H,3H)-dione]?
Answer: IC50 [1]: 1 to 10 µM; IC50 [2]: < 1 µM

Question: `COc1ccc(Oc2cccc(-c3c(CN)c(NCc4ccc5ccccc5c4)nc4c3c(=O)n(C)c(=O)n4C)c2)cc1` [Compound 60, 6-(Aminomethyl)-5-(3-(4-methoxyphenoxy)phenyl)-1,3-dimethyl-7-(naphthalen-2-ylmethylamino)pyrido[2,3-d]pyrimidine-2,4(1H,3H)-dione] was tested. Which IC50 [1] did it give?
Answer: 1 to 10 µM

Question: And the IC50 [2]?
Answer: 10 to 100 µM

Question: What does the source list for `COc1ccc(F)cc1-c1c(CN)c(NCCc2ccccc2)nc2c1c(=O)n(C)c(=O)n2C` [Compound 93, 6-(Aminomethyl)-5-(5-fluoro-2-methoxyphenyl)-1,3-dimethyl-7-(phenethylamino)pyrido[2,3-d]pyrimidine-2,4(1H,3H)-dione]?
Answer: IC50 [1]: 10 to 100 µM; IC50 [2]: < 1 µM

Question: For `Cn1c(=O)c2c(-c3cccc4c3OC(C)(C)C4)c(CN)c(NCc3ccc4ccccc4c3)nc2n(C)c1=O` [Compound 59, 6-(Aminomethyl)-5-(2,2-dimethyl-2,3-dihydrobenzofuran-7-yl)-1,3-dimethyl-7-(naphthalen-2-ylmethylamino)pyrido[2,3-d]pyrimidine-2,4(1H,3H)-dione], which IC50 [1] is on record?
Answer: 1 to 10 µM

Question: And the IC50 [2]?
Answer: 10 to 100 µM

Question: For `Cn1c(=O)c2c(-c3ccccc3Oc3ccccc3)c(CN)c(NCc3ccc4ccccc4c3)nc2n(C)c1=O` [Compound 63, 6-(Aminomethyl)-1,3-dimethyl-7-(naphthalen-2-ylmethylamino)-5-(2-phenoxyphenyl)pyrido[2,3-d]pyrimidine-2,4(1H,3H)-dione], which IC50 [1] is on record?
Answer: 1 to 10 µM

Question: And the IC50 [2]?
Answer: 1 to 10 µM

Question: `CC(=O)Nc1ccc(Sc2nc3c(c(-c4cc(F)ccc4Br)c2CN)c(=O)n(C)c(=O)n3C)cc1` [Compound 68, N-(4-(6-(aminomethyl)-5-(2-bromo-5-fluorophenyl)-1,3-dimethyl-2,4-dioxo-1,2,3,4-tetrahydropyrido[2,3-d]pyrimidin-7-ylthio)phenyl)acetamide] was tested. Which IC50 [1] did it give?
Answer: 10 to 100 µM

Question: And the IC50 [2]?
Answer: < 1 µM

Question: `Cn1c(=O)c2c(-c3cc(F)ccc3Br)c(CN)c(NC(Cc3ccccc3)c3ccccc3)nc2n(C)c1=O` (stereo not shown) [Compound 91, 6-(Aminomethyl)-5-(2-bromo-5-fluorophenyl)-7-(1,2-diphenylethylamino)-1,3-dimethylpyrido[2,3-d]pyrimidine-2,4(1H,3H)-dione] was tested. Which IC50 [1] did it give?
Answer: 1 to 10 µM

Question: What about the IC50 [2] of the same molecule?
Answer: < 1 µM

Question: `COc1cc(OC)cc(-c2c(CN)c(NCc3ccc4ccccc4c3)nc3c2c(=O)n(C)c(=O)n3C)c1` [Compound 57, 6-(aminomethyl)-5-(3,5-dimethoxyphenyl)-1,3-dimethyl-7-(naphthalen-2-ylmethylamino)pyrido[2,3-d]pyrimidine-2,4(1H,3H)-dione] was tested. Which IC50 [1] did it give?
Answer: 1 to 10 µM

Question: What about the IC50 [2] of the same molecule?
Answer: > 100 µM
